Patent publication US8075562B2, “Controlled release of biopharmaceutical growth factors from hydroxyapatite coating on bioresorbable interference screws used in cruciate ligament reconstruction surgery” (Wisconsin Alumni Research Foundation, priority 2007, dated 2011)
Entries after “also recorded” stand apart in the source; their conditions may differ. Like-named read-outs stand apart in the source and are kept apart here.

Columns and labels:
mesenchymal stem cells = assay: Stem cell-based bioactivity assay (alkaline phosphatase upregulation, osteogenic differentiation)
[1] = Binding of engineered BMP-2 peptide to hydroxyapatite in solution; conditions: preliminary results
Source text: Binding growth factors to calcium phosphate minerals. Characterization of binding of engineered bone morphogenetic protein-2 peptide (eBMP-2) to CaP mineral materials is characterized. […] (See, FIGS. 10 and 11). […] (See, FIGS. 12 and 13). […] BMP-2 will be used because it has a high intrinsic affinity for CaP minerals.

KIPKA SSVPT ELSAI STLYL (KIPKASSVPTELSAISTLYL) [eBMP-2, engineered bone morphogenetic protein-2 peptide; hBMP-2: 73-92 (C78, 79S, M89T)]
osteogenic differentiation / alkaline phosphatase upregulation (mesenchymal stem cells): biologically active | osteogenic differentiation / alkaline phosphatase upregulation (mesenchymal stem cells; listed as e-BMP-2): promotes osteogenic differentiation | binding to hydroxyapatite in solution [1]: forms strong ionic bonds to hydroxyapatite; also recorded: binds to the hydroxyapatite mineral in solution
